Experimental data taken from patent publication US20170355743A1, “INSULIN RECEPTOR PARTIAL AGONISTS” (Merck Sharp & Dohme Corp., priority 2014, published 2017).

Test system: C57BL/6NTac mice
Assay: Intraperitoneal Insulin Tolerance Test (IP-ITT)
Assay type: in vivo
Settings: intraperitoneal injection, two doses per compound (Table 16), lean male C57BL/6NTac mice, 30 to 360 minutes after dose
Procedure: Groups of N=6-8 animals per group were randomized by weight (average about 30 grams). Two days prior to study, the mice were conditioned to dosing with an intraperitoneal injection of 0.9% Sodium Chloride solution at 5 ml/kg dosing volume. On the morning of the study, food was removed two or four hours prior to the study. Blood glucose concentrations were determined at T=0 min (baseline) using a Glucometer. […] Blood glucose levels were determined from tail bleeds taken between 30 to 360 minutes after dose.

Substance: B29,B29′-suberoyl-(insulin)2 [Compound B, reference compound]
- blood glucose profile at low versus high dose: increased glucose lowering potency
